From ChEMBL document CHEMBL1201862, “PubChem BioAssay data set” (2004)
Calls of active or inactive are those of the source.

Key:
Fatty acid synthase = Fatty acid synthase (Homo sapiens, UniProt P49327); assay: inhibition of human FAS-TE enzyme activity – biochemical, endpoint fluorescence intensity, powder samples, SAR follow-up (AID 652164); assay type: functional
[1] = potency of ADAM10 substrate cleavage blockers – biochemical, QFRET, dose response (AID 743254);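 also: ADAM10 enzyme with the DM2 quenched FRET peptide as substrate; EDANS fluorescence gain as the protease cuts the substrate; inhibitor potency against ADAM10 proteolytic activity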
[2] = target: Disintegrin and metalloproteinase domain-containing protein 17 (Homo sapiens, UniProt P78536); assay: inhibition of ADAM17 substrate cleavage – biochemical, quenched FRET substrate, counter-screen for ADAM10 exosite inhibitor project, dose response (AID 743253)
[3] = viability loss in HEK293 kidney cells – cell-based, cherry-picks, set 5, cytotoxicity control, dose response (AID 1053117); assay type: functional
[4] = blockers of FN fibrillogenesis by fibroblasts – AH1F cells, Alexa488-FN fluorescence, cherry-picks, dose response (AID 1035475); assay type: functional, cell-based
Beta-galactosidase = Beta-galactosidase (Escherichia coli, UniProt Q8VNN2); assay: Dose response counterscreen for EBI2 assay utilizing the enzyme, b-galactosidase.; assay type: functional
[5] = T. cruzi growth inhibition in host cells, dose response, cell-based, plate reader, dry powder, set 2 (AID 652275); assay type: functional
[6] = anti-trypanosomal activity in BESM host cells – imaging, CA-I/72 strain, bovine embryo skeletal muscle, dry powder, dose response (AID 651885); assay type: functional, cell-based
[7] = HEK293 Cytotoxicity Assay Measured in Cell-Based System Using Plate Reader - 7071-01_Inhibitor_Dose_CherryPick_Activity_Set2.; assay type: functional
HEK293 = assay: viability loss in HEK293T cells – cell-based, ATP luminescence, cherry-pick samples, cytotoxicity control, dose response (AID 687005); assay type: functional; details: Homo sapiens;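 also: cells exposed to compound for 48 hours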
[8] = target: T1, Oxysterols receptor LXR-beta (Homo sapiens, UniProt P55055); assay type: functional, cell-based
HeLa = assay: viability loss in HeLa cells – cell-based, ATP luminescence, cherry-pick samples, cytotoxicity control, dose response (AID 687004); assay type: functional; details: Homo sapiens
[9] = YAP1 overexpression rescue of CTGF inhibition – DLD1 cells, RT-qPCR, cherry-pick, mechanism study for YAP1 pathway inhibitor project, dose response (AID 1053127); assay type: functional, cell-based; details: DLD-1
[10] = CTGF mRNA reduction in DLD1 cells – cell-based, DLD1 colon cancer, RT-qPCR, cherry-pick, dose response (AID 1053122); assay type: functional; details: Cancer cell lines
[11] = target: T1, Oxysterols receptor LXR-beta; assay type: functional, cell-based; remark: listed apart in the source

T1 sequence (P55055 whole entry): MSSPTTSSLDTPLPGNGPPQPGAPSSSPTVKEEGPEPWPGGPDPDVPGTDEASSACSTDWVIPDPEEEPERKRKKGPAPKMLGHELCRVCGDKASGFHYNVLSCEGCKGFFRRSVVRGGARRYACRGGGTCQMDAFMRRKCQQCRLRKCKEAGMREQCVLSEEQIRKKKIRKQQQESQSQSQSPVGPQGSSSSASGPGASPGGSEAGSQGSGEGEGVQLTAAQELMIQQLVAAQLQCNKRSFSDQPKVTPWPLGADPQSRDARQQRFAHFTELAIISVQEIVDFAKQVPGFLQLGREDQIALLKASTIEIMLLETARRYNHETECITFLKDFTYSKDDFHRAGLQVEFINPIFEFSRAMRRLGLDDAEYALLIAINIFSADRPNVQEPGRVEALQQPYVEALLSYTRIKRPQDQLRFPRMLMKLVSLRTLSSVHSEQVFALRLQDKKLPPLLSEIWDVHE
Sequence of Beta-galactosidase (Q8VNN2 whole entry): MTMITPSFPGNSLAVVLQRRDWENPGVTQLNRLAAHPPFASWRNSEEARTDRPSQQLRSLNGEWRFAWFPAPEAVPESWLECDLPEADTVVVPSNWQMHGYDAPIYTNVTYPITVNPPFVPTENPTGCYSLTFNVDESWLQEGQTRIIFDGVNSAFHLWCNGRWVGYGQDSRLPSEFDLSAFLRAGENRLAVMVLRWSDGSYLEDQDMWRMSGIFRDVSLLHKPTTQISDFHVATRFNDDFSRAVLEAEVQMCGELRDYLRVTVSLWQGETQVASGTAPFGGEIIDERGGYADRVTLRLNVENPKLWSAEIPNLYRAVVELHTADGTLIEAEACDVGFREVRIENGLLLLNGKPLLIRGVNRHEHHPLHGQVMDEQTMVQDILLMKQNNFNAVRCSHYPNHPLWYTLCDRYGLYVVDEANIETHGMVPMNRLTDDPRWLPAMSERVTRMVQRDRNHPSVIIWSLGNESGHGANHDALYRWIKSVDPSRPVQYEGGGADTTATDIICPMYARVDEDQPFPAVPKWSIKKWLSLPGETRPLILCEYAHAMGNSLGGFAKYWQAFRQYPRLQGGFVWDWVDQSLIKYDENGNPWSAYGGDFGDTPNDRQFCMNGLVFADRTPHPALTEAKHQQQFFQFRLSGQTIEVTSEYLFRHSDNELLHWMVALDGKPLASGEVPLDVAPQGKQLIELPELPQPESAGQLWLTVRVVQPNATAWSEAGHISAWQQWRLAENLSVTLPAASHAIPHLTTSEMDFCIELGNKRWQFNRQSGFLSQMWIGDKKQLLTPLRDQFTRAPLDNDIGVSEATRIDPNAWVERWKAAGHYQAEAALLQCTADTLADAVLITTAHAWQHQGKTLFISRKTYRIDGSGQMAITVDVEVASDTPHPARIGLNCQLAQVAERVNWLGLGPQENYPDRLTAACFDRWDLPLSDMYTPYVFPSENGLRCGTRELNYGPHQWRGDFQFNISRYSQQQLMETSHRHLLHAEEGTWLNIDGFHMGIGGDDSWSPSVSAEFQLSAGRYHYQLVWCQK
Sequence of Disintegrin and metalloproteinase domain-containing protein 17 (P78536 whole entry, the tested form may be a part): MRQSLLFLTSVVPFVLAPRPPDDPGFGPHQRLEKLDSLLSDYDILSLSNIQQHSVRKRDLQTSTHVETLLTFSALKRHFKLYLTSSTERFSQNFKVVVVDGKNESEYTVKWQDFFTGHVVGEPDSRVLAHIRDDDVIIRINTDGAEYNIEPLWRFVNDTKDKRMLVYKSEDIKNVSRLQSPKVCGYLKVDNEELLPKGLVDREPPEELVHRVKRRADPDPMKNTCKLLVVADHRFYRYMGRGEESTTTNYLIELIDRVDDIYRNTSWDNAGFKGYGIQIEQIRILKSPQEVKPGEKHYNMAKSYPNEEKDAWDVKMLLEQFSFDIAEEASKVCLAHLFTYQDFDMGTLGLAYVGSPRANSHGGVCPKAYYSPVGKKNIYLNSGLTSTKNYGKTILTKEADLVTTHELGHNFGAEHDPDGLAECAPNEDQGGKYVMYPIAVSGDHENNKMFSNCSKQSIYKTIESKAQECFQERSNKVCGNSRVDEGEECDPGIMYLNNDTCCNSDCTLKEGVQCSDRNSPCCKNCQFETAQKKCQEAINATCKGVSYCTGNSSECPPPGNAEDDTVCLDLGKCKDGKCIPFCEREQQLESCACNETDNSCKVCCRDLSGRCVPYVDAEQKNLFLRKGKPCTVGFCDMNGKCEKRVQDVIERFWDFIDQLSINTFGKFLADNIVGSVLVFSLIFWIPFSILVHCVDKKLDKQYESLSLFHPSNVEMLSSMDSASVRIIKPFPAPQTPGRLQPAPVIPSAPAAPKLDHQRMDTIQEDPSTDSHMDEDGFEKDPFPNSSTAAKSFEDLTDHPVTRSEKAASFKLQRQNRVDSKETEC
Sequence of Fatty acid synthase (P49327 whole entry): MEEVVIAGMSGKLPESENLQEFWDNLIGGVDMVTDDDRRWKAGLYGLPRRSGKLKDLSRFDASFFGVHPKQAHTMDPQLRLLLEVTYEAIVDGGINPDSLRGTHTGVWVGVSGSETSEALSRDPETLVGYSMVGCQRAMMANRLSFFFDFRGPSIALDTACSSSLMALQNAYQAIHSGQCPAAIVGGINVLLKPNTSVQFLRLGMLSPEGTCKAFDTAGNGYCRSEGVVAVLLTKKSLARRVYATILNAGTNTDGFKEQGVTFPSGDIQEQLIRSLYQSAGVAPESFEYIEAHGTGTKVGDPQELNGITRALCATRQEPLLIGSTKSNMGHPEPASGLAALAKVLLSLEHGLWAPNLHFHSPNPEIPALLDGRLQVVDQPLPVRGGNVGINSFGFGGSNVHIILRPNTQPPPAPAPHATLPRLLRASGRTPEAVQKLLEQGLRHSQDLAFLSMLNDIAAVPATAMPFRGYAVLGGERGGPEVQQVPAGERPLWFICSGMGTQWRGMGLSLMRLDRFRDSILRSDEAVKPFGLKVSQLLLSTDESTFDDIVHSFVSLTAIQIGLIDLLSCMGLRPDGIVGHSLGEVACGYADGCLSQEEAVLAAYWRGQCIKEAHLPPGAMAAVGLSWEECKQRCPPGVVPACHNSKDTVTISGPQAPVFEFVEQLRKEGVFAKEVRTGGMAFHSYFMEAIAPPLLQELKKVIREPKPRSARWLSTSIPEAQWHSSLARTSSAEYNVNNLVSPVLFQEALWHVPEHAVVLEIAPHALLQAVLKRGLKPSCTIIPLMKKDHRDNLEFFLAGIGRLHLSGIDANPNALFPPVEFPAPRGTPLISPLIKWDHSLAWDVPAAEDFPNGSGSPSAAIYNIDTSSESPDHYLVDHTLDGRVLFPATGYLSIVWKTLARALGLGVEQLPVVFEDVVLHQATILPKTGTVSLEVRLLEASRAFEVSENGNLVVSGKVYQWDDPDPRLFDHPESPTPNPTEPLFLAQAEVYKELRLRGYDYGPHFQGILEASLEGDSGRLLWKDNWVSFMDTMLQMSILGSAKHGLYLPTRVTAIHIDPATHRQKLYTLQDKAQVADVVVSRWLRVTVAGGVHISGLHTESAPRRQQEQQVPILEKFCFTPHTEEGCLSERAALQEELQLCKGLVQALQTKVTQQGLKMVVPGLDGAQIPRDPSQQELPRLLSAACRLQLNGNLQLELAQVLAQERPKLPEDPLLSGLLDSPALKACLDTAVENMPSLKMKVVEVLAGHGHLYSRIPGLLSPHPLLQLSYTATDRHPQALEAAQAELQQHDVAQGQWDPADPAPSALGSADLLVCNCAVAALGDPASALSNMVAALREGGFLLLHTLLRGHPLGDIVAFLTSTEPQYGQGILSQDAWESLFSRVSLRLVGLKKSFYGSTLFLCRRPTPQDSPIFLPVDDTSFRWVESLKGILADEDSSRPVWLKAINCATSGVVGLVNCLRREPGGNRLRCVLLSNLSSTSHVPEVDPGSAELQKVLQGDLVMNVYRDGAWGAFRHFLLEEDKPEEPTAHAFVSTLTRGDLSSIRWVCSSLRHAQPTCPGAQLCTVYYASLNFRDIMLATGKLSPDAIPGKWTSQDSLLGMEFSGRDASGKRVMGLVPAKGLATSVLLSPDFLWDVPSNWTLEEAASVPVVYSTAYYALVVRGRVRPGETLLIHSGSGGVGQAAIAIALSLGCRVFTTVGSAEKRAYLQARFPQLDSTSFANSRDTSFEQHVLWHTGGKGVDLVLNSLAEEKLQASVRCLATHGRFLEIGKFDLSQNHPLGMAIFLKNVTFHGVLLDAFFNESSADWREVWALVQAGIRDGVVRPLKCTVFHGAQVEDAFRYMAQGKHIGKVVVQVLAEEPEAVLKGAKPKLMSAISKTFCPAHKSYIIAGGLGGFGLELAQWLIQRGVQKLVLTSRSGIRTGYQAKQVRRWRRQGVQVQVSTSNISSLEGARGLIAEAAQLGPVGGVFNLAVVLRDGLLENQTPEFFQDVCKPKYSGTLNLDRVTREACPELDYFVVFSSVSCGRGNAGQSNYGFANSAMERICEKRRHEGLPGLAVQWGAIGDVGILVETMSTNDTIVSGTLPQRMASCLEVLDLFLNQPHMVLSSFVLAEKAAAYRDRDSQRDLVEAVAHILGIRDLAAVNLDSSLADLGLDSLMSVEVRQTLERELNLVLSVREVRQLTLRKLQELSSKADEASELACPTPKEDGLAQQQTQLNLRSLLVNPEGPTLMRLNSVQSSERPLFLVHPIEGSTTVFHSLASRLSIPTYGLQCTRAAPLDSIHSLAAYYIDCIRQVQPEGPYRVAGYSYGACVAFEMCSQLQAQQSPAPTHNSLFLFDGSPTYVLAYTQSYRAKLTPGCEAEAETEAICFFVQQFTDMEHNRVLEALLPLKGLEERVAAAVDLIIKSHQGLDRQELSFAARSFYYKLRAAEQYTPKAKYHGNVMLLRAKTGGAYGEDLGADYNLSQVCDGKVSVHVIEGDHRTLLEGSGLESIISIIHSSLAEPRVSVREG

Compound: CC1CCN(S(=O)(=O)c2ccc(-c3csc(NC(=O)C4CC4)n3)cc2)CC1
- IC50 (Fatty acid synthase): > 80 µM (inactive)

Compound: O=C(Nc1ccc2c(c1)OCCO2)C(c1ccnc2ccccc12)N1CCC(Cc2ccccc2)CC1 (stereo unspecified)
- IC50 [1]: > 69.5 µM (inactive)
- IC50 [2]: > 69.5 µM (inactive)

Compound: COc1cccc(-c2ccc3c(c2)[C@@H]2[C@@H](CCN2S(=O)(=O)c2cccc(OC)c2)[C@H](CO)N3)c1
- AC50 [3]: 30.5 µM (active)
- AC50 [4]: 57.8 µM (active)

Compound: CS(=O)(=O)N(CC(=O)NCCSc1ccc(Cl)cc1)c1ccc2c(c1)OCO2
- IC50 (Beta-galactosidase): > 80 µM (inactive)

Compound: CC(C)N1C[C@H](C)[C@@H](CN(C)Cc2ccc(Cl)cc2)Oc2c(NC(=O)c3ccncc3)cccc2C1=O
- AC50 [5]: 0.000541 µM (active)
- IC50 [6]: 0.00107 µM (active)

Compound: Cc1ccc(S(=O)(=O)N2CC[C@@H]3[C@H]2c2cc(-c4ccccc4F)ccc2N[C@@H]3CO)cc1
- AC50 [7]: > 47 µM (inactive)
- AC50 (HEK293): > 47 µM (inactive)

Compound: Fc1cccc(F)c1/C=N/Nc1ccccn1
- EC50 (cells): > 67.5 µM (inactive)
- EC50 [8]: > 67.5 µM (inactive)

Compound: O=C(CN1CCOCC1)N1CC[C@@H]2[C@@H](CO)Nc3ccc(-c4ccccc4F)cc3[C@@H]21
- AC50 (HeLa): < 0.195 µM (active)

Compound: O=C(Cc1ccncc1)N1CCCCN2[C@H](CO)[C@H](c3ccc(C#Cc4ccccc4F)cc3)[C@@H]2C1
- AC50 [9]: 7.5 µM (active)
- AC50 [10]: 5.41 µM (active)

Compound: Nc1c(OS(=O)(=O)c2ccccc2)cccc1OS(=O)(=O)c1ccccc1
- EC50 [11]: > 67.5 µM (inactive)
